Results reported in patent US7247709B2, “Mitogenic oxygenases” (Emory University, priority 1998, dated 2007).
Each block holds one molecule with its values, some of them ahead of it.

Legend:
[1] = test system: superoxide-generating NADPH oxidase activity; test: Superoxide generation in lysates of Ras-transformed fibroblasts, lucigenin luminescence assay; format: biochemical; settings: for RLU/5 μg protein, plus DPI: 1 μM DPI; for inhibition of luminescence / activity: lysates of Table 6; for RLU/5 μg protein, plus SOD: 100 U SOD
Procedure: Lysates from each of these lines were then prepared and tested for their ability to generate superoxide. For each cell line, cells were washed with cold HANKS' balanced salt solution (HBSS), collected by centrifugation, kept on dry-ice for more than 30 min, and disrupted by suspending in low salt buffer (LSB; 50 mM Tris/HCl, pH 7.5, 1 mM PMSF, and protease cocktail from Sigma) and passing through a syringe needle (18 gauge) ten times. Cell lysates were frozen in dry-ice immediately after determining the protein concentration. […] Luminescence of the reaction mixture was monitored for 0.5 second by LumiCounter (Packard) for four times at 3 second intervals. RLU in Table 5 refers to relative luminescence units.

[2] = target: T1, human mox1 (Homo sapiens, UniProt Q9Y5S8, I173V); test: NADPH-dependent superoxide generation, lucigenin luminescence assay in lysates of mox1-transfected NIH 3T3 cells; format: biochemical; settings: lysates of stably mox1-transfected NIH 3T3 cell lines
T1 construct: expressed in transfected cells
T1 sequence (Q9Y5S8 1-564 I173V): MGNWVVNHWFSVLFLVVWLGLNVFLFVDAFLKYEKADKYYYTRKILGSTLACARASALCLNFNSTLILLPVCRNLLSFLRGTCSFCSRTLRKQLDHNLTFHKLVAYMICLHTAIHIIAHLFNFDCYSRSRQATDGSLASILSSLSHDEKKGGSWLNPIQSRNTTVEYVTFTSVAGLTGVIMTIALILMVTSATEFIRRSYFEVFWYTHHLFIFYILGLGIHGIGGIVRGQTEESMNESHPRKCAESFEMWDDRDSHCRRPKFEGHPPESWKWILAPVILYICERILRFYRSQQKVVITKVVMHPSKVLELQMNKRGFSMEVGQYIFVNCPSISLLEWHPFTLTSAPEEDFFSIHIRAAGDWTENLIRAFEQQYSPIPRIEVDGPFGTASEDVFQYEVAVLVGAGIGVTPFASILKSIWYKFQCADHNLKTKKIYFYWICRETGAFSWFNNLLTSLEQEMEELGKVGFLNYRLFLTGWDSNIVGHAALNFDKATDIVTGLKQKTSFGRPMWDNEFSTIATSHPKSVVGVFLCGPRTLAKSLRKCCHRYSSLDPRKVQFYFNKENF
T1 sequence (Q61462 1-192 partner): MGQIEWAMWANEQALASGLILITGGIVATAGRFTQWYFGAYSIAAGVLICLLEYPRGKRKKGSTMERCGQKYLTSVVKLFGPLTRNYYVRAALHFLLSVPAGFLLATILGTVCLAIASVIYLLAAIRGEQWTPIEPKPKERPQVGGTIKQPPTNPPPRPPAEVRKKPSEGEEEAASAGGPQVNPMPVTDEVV
Procedure: In one embodiment of the present invention, NIH 3T3 cells stably transfected with the human mox1 gene (SEQ ID NO:1) were analyzed for superoxide generation using the lucigenin (Bis-N-methylacridinium luminescence assay (Sigma, St. Louis, Mo., Li et al. (1998) J. Biol. Chem. 273, 2015-2023). Cells were washed with cold HANKS' solution and homogenized on ice in HANKS' buffer containing 15% sucrose using a Dounce homogenizer. Cell lysates were frozen immediately in a dry ice/ethanol bath. For the assay, 30 μg of cell lysate was mixed with 200 μM NADPH and 500 μM lucigenin. Luminescence was monitored using a LumiCounter (Packard) at three successive one minute intervals and the highest value was used for comparison. Protein concentration was determined by the Bradford method.
Superoxide generation was monitored in lysates from some of the stably transfected cell lines and was compared with superoxide generation by the untransfected NIH 3T3 cell lysates. Cell lines 26, 27, and 28 gave the highest degree of morphological changes by microscopic examination corresponding to the highest degree of superoxide generation. The luminescent signal was inhibited by superoxide dismutase and the general flavoprotein inhibitor diphenylene iodonium, but was unaffected by added recombinant human p47phox, p67phox and Rac1 (GTP-γS), which are essential cytosolic factors for the phagocyte respiratory-burst oxidase.

[3] = target: T2, mox1 NADPH-oxidase (Homo sapiens, UniProt Q9Y5S8, I173V); test: Cell-free assay for mox1 NADPH-oxidase activity (NADPH-dependent chemiluminescence of cell lysates); format: biochemical; settings: MgCl2 1-5 mM
T2 construct: expressed in transfected cells
T2 sequence (Q9Y5S8 1-564 I173V): T1 sequence (Q9Y5S8 1-564 I173V)
T2 sequence (Q61462 1-192 partner): T1 sequence (Q61462 1-192 partner)
Procedure: In an alternate and preferred embodiment of the present invention, cells that had been stably transfected with mox1 (YA28) or with empty vector (NEF2) were grown in 10 cm tissue culture plates in medium containing DMEM, 10% calf serum, 100 units/ml penicillin, 100 μg/ml streptomycin, and 1 μg/ml puromycin to approximately 80% confluency. Cells (five tissue culture plates of each cell type) were washed briefly with 5 ml phosphate buffered saline (PBS) then dissociated from the plates with PBS containing 5 mM EDTA. Cells were pelleted by centrifuging briefly at 1000×g.
To permeabilize the cells, freeze thaw lysis was carried out and this was followed by passage of the cell material through a small bore needle. The supernatant was removed and the cells were frozen on dry ice for 15 minutes. […]
The cell lysates were assayed for protein concentration using the BioRad protein assay system. […] The reaction was initiated by adding 1.5 mM NADPH and 75 μM lucigenin to the assay mix to give a final concentration of 200 μM NADPH and 10 μM lucigenin, and the chemiluminescence was monitored immediately. […] The plate was monitored continuously for 60 minutes and the maximal relative luminescence unit (RLU) value for each sample was used for the graph. […]

[4] = test system: r-p65mox mRNA; test: Expression of r-p65mox mRNA in rat aortic smooth muscle cells (Northern blot); format: cell-based
Procedure: Human multiple tissue northern (MTN) Blot I and Human MTN Blot IV (ClonTech) membranes were hybridized with the putative coding region of the PCR-mox vector at 68° C. for several hours. The mox coding region was labeled by random priming with [α-^32P]dCTP (10 μCi) using the Prime-It II kit (Stratagene). For analysis of mox1 expression in cell lines, total RNA was prepared from 10^6 cells using the High Pure RNA Isolation Kit (Boehringer Mannheim) or RNeasy kit (Quiagen). Total RNA (10-20 μg) was separated on a 1% agarose formaldehyde mini-gel and transferred to a Nytran filter (Biorad) and immobilized by ultraviolet cross-linking.
Using the partial cDNA clone from rat, we have examined cultured rat aortic smooth muscle cells for expression of message for r-p65mox. We have observed the mRNA for r-p65mox in these cells. It has been previously reported (Griendling et al. (1994) Circ. Res. 74, 1141-1148; Fukui et al. (1997) Circ. Res. 80, 45-51; Ushio-Fukai et al. (1996) J. Biol. Chem. 271, 23317-23321) that in vitro or in vivo treatment with angiotensin II (AII) is a growth stimulus for vascular smooth muscle cells, and that AII induces increased superoxide generation in these cells. Platelet-derived growth factor (PDGF) and PMA are proliferative signals for vascular smooth muscle cells. We observed that the mRNA for r-p65mox was induced approximately 2-3 fold by angiotensin II (100 nM), corresponding to the increased level of superoxide generation. Thus, the increased superoxide generation in these cells correlates with increased expression of the mRNA for this enzyme. […] 28S RNA was used as a control for RNA recovery.

[5] = test system: NIH 3T3 cells transfected with the mox1 cDNA (SEQ ID NO:1); test: Nitro blue tetrazolium reduction by superoxide generated by intact NIH 3T3 cells transfected with mox1 cDNA; format: cell-based; settings: 600 units superoxide dismutase
Procedure: Superoxide generation by intact cells was monitored by using superoxide dismutase-sensitive reduction of nitroblue tetrazolium. NEF2 (vector alone control), YA26 (mox1 (SEQ ID NO:1)-transfected) and YA28 (mox1 (SEQ ID NO:1)-transfected) cells were plated in six well plates at 500,000 cells per well. About 24 hours later, medium was removed from cells and the cells were washed once with 1 mL Hanks solution (Sigma, St. Louis, Mo.). About 1 mL of filtered 0.25% Nitro blue tetrazolium (NBT, Sigma) was added in Hanks without or with 600 units of superoxide dismutase (Sigma) and cells were incubated at 37° C. in the presence of 5% CO2. After 8 minutes the cells were scraped and pelleted at more than 10,000 g. The pellet was re-suspended in 1 mL of pyridine (Sigma) and heated for 10 minutes at 100° C. to solubilize the reduced NBT. The concentration of reduced NBT was determined by measuring the absorbance at 510 nm, using an extinction coefficient of 11,000 M^−1cm^−1. Some wells were untreated and used to determine cell number.

Molecule: c1ccc2c(c1)[I+]c1ccccc1-2 [DPI, diphenyleneiodonium]
RLU/5 μg protein, plus DPI ([1]; V12-Ras-4 lysate): 36 RLU/5 μg protein
RLU/5 μg protein, plus DPI ([1]; V12-Ras-7 lysate): 39 RLU/5 μg protein
RLU/5 μg protein, plus DPI ([1]; V12-Ras-8 lysate): 35 RLU/5 μg protein
RLU/5 μg protein, plus DPI ([1]; Vector Control lysate): 48 RLU/5 μg protein
inhibition of luminescence / activity [1]: completely inhibited
effect of added agent on the luminescent signal [2]: inhibited

Molecule: PDGF
induction of rat mox1 message, quantitation by densitometry ([4]; 6 and 12 hour time points): ~4 fold
increase of mRNA for r-p65mox ([4]; PDGF 20 ng/ml): ≥ 2 fold
Northern hybridization of mox1 mRNA from rat aortic smooth muscle cells ([4]; within 12 hours after treatment): increased roughly two-fold

Molecule: angiotensin II (DRVYIHPF; Angiotensin-2; UniProt P01019 25-32, looked up) [growth stimulus for vascular smooth muscle cells]
induction of rat mox1 message, quantitation by densitometry ([4]; 12 hour time point): approximately 2 fold

B1: p67phox: recombinant human p67phox, essential cytosolic factor for the phagocyte respiratory-burst oxidase (protein, UniProt P19878 1-526, looked up)
Neutrophil cytosol factor 2: MSLVEAISLWNEGVLAADKKDWKGALDAFSAVQDPHSRICFNIGCMYTILKNMTEAEKAFTRSINRDKHLAVAYFQRGMLYYQTEKYDLAIKDLKEALIQLRGNQLIDYKILGLQFKLFACEVLYNIAFMYAKKEEWKKAEEQLALATSMKSEPRHSKIDKAMECVWKQKLYEPVVIPVGKLFRPNERQVAQLAKKDYLGKATVVASVVDQDSFSGFAPLQPQAAEPPPRPKTPEIFRALEGEAHRVLFGFVPETKEELQVMPGNIVFVLKKGNDNWATVMFNGQKGLVPCNYLEPVELRIHPQQQPQEESSPQSDIPAPPSSKAPGRPQLSPGQKQKEEPKEVKLSVPMPYTLKVHYKYTVVMKTQPGLPYSQVRDMVSKKLELRLEHTKLSYRPRDSNELVPLSEDSMKDAWGQVKNYCLTLWCENTVGDQGFPDEPKESEKADANNQTTEPQLKKGSQVEALFSYEATQPEDLEFQEGDIILVLSKVNEEWLEGECKGKVGIFPKVFVEDCATTDLESTRREV
effect of added agent on the luminescent signal [2]: unaffected

More lines, main results first:

enhancement of NADPH-oxidase activity [3]: about 2 fold
Molecule: [Cl-].[Cl-].[Mg+2] [MgCl2]

RLU/5 μg protein, plus SOD ([1]; V12-Ras-4 lysate): 2128 RLU/5 μg protein
RLU/5 μg protein, plus SOD ([1]; V12-Ras-7 lysate): 578 RLU/5 μg protein
RLU/5 μg protein, plus SOD ([1]; V12-Ras-8 lysate): 2000 RLU/5 μg protein
RLU/5 μg protein, plus SOD ([1]; Vector Control lysate): 154 RLU/5 μg protein
inhibition of luminescence / activity [1]: partially inhibited
effect of added agent on the luminescent signal [2]: inhibited
Molecule: superoxide dismutase
NBT Reduction, +SOD ([5]; YA26 (mox1) cells): 3.4 ± 0.1 nmols/10^6 cells
NBT Reduction, +SOD ([5]; YA28 (mox1) cells): 3.4 ± 0.3 nmols/10^6 cells
NBT Reduction, +SOD ([5]; vector control cells): 2.1 ± 0.5 nmols/10^6 cells

effect of added agent on the luminescent signal [2]: unaffected
B2: p47phox: recombinant human p47phox, essential cytosolic factor for the phagocyte respiratory-burst oxidase (protein, UniProt P14598 1-390, looked up)
Neutrophil cytosol factor 1: MGDTFIRHIALLGFEKRFVPSQHYVYMFLVKWQDLSEKVVYRRFTEIYEFHKTLKEMFPIEAGAINPENRIIPHLPAPKWFDGQRAAENRQGTLTEYCSTLMSLPTKISRCPHLLDFFKVRPDDLKLPTDNQTKKPETYLMPKDGKSTATDITGPIILQTYRAIANYEKTSGSEMALSTGDVVEVVEKSESGWWFCQMKAKRGWIPASFLEPLDSPDETEDPEPNYAGEPYVAIKAYTAVEGDEVSLLEGEAVEVIHKLLDGWWVIRKDDVTGYFPSMYLQKSGQDVSQAQRQIKRGAPPRRSSIRNAHSIHQRSRKRLSQDAYRRNSVRFLQQRRRQARPGPQSPGSPLEEERQTQRSKPQPAVPPRPSADLILNRCSESTKRKLASAV
